What was measured:
[1] = test system: eIF4E phosphorylation; assay: In vivo eIF4E phosphorylation in different tissues (Western blot), 4ET-01-021; parameters: species or system mice; details: PO 10 mg/kg
From the text: However, 4ET-01-021 minimally-inhibited phosphorylation of eIF4E in the brain, as determined by Western blot analysis of brain tissue from the cortex.

[2] = Liver microsome stability, mouse; assay type: in vitro ADME; details: mouse, liver microsomes, mouse liver microsomes, Table 11b; read-out: T1/2

Question: With `CCC1=CC2(CCC1)NC(=O)c1c(C)cc(Nc3cc(N)ncn3)c(=O)n12` (stereo not drawn) [Compound 4ET-01-021, 6′-((6-Aminopyrimidin-4-yl)amino)-3-ethyl-8′-methyl-2′H-spiro[cyclohexane-1,3′-imidazo[1,5-a]pyridin]-2-ene-1′,5′-dione] as the molecule, how does the “eIF4E phosphorylation in the brain (cortex)” value [1] read?
Answer: Its value is “minimally-inhibited”.

Question: What about the “eIF4E phosphorylation in DRGs, sciatic nerve, and spleen” value ([1]; 2 hours or 4 hours post dose) of the same molecule?
Answer: The value was “significant inhibition of eIF4E phosphorylation”.

Question: And the half-life [2]?
Answer: The half-life was 1.55 h.

Source: patent publication US20230286983A1 (4E Therapeutics, Inc., priority 2020, published 2023)
